Measurements from patent US20240199623A1 (ILDONG PHARMACEUTICAL CO., LTD., priority 2020, published 2024).

Molecular target: human wild type-CFTR (Homo sapiens, UniProt P13569)
Assay: Cell-based YFP assay
Set-up: expressed in transfected cells; host or cells: CHO-K1 (Chinese hamster ovary)
Conditions: CHO-K1 cells expressing human wild type-CFTR and YFP-H148Q/I152L; forskolin 20 μM = 100% activity; read-out: Cell-based YFP Assay (EC50) Concentration Range
Procedure: Forskolin (Tocris cat. #1099), Dimethyl sulfoxide (Sigma cat. #D4540), FLUO star Omega microplate reader (BMG Labtech, Ortenberg, Germany), MARS Data Analysis Software (BMG Labtech), GraphPad Prism 5 (GraphPad Software, Inc.) Chinese hamster ovary (CHO-K1) cells expressing human wild type-CFTR and halide sensor YFP-H148Q/I152L were constructed and grown in Dulbecco's modified Eagle's medium (DMEM) supplemented with 10% FBS, 2 mM glutamine, 100 units/ml penicillin and 100 μg/ml streptomycin. Chinese hamster ovary (CHO-K1) cells expressing human wild type-CFTR and halide sensor YFP-H148Q/I152L were seeded in 96-well microplate with 2×10^4 cells/well and incubated in 37° C., 48 hours. Then, each well was washed 3 times with PBS and 100 μL PBS was added in each well. […] YFP fluorescence signal affected by I^− ion influx through CFTR channel was measured in 37° C., FLUO star Omega microplate reader according to the following steps: • i) basal 2 seconds; • ii) 140 mM I^− solution 100 μL addition to each well; • iii) YFP fluorescence signal measurement start after 6 seconds; and • iv) following 14 seconds signal detection in every 0.4 seconds periods. […] Experiments were performed in triplicates and the data was averaged. EC50 values were calculated with MARS Data Analysis Software (BMG Labtech) and GraphPad Prism 5.

Sequence of human wild type-CFTR (P13569 whole entry): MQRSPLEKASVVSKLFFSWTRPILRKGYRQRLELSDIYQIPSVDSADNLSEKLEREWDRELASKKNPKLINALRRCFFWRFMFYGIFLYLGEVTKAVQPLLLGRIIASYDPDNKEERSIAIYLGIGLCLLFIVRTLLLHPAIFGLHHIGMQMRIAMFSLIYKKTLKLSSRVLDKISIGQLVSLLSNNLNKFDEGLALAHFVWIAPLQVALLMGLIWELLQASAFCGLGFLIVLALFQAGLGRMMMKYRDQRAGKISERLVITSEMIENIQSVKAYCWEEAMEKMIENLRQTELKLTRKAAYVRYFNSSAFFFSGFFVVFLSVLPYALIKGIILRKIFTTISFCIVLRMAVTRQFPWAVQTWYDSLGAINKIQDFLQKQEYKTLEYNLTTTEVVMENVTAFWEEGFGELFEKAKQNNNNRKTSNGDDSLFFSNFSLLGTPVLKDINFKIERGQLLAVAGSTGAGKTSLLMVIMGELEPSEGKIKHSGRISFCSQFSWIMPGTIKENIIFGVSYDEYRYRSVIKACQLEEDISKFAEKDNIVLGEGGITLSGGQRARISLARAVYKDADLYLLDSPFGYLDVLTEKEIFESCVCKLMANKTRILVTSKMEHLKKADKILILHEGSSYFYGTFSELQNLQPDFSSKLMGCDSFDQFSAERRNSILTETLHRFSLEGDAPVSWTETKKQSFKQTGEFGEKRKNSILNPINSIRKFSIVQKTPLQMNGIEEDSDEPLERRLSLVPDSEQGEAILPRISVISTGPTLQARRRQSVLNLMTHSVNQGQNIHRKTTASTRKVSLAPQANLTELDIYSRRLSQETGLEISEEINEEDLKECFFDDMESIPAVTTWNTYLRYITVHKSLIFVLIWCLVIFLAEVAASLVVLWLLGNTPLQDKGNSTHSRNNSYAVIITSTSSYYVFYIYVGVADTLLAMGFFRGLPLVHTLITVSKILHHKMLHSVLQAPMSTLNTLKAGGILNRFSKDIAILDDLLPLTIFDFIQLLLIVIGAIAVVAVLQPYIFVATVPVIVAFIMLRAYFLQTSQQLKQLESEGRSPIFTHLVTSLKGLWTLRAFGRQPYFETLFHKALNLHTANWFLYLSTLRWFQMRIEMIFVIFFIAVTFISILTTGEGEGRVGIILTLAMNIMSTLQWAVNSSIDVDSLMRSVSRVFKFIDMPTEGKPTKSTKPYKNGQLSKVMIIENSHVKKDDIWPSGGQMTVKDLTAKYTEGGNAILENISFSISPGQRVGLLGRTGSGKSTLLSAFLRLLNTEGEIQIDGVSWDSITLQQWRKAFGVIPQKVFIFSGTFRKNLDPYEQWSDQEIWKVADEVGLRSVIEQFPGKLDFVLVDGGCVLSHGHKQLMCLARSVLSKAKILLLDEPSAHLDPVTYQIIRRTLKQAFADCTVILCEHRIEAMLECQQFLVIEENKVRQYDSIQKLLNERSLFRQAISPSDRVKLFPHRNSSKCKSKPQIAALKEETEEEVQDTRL

| Compound | EC50 [nM] |
| --- | --- |
| COc1ccc(-c2ccnc3cc(C(=O)N4CCCc5cc(C(=O)N6CCOCC6)ccc54)nn23)cc1OC [Compound 236, (7-(3,4-dimethoxyphenyl)pyrazolo[1,5-a]pyrimidin-2-yl)(6-(morpholine-4-carbonyl)-3,4-dihydroquinolin-1(2H)-yl)methanone] | ≥ 2000 |
| COc1ccc(-c2ccnc3cc(C(=O)N4CCN(C(=O)c5ccc(C)cc5)[C@@H](C)C4)nn23)cc1OC [Compound 351, (S)-(7-(3,4-dimethoxyphenyl)pyrazolo[1,5-a]pyrimidin-2-yl)(3-methyl-4-(4-methylbenzoyl)piperazin-1-yl)methanone] | < 200 |
| COc1ccc(-c2ccnc3cc(C(=O)N[C@H]4CC[C@H](C(N)=O)CC4)nn23)cc1OC [Compound 74, N-((1R,4R)-4-carbamoylcyclohexyl)-7-(3,4-dimethoxyphenyl)pyrazolo [1,5-a]pyrimidine-2-carboxamide] | ≥ 2000 |
| COc1ccc(-c2ccnc3cc(C(=O)N4CCOCC4)nn23)cc1OC [Compound 61, (7-(3,4-dimethoxyphenyl)pyrazolo[1,5-a]pyrimidine-2-yl) (morpholino)methanone] | ≥ 2000 |
| CCOC(=O)CNC(=O)c1cc2nccc(-c3ccc(OC)c(OC)c3)n2n1 [Compound 20, ethyl (7-(3,4-dimethoxyphenyl)pyrazolo [1,5-a]pyrimidine-2-carbonyl) glycinate] | 200 to 2000 |
| COc1ccc(-c2ccnc3cc(C(=O)N(C)c4ccc(C(=O)N5CCOCC5)cc4)nn23)cc1OC [Compound 249, 7-(3,4-dimethoxyphenyl)-N-methyl-N-(4-(morpholine-4-carbonyl)phenyl)pyrazolo[1,5-a]pyrimidine-2-carboxamide] | ≥ 2000 |

More lines, now with the values ahead:

| EC50 [nM] | Compound |
| --- | --- |
| < 200 | COc1ccc(-c2ccnc3cc(C(=O)Nc4ccc(CO)cc4)nn23)cc1OC [Compound 292, 7-(3,4-dimethoxyphenyl)-N-(4-(hydroxymethyl)phenyl) pyrazolo[1,5-a]pyrimidine-2-carboxamide] |
| ≥ 2000 | COc1ccc(-c2ccnc3cc(C(=O)Nc4ccc(C(=O)O)c(OC)c4)nn23)cc1OC [Compound 216, 4-(7-(3,4-dimethoxyphenyl)pyrazolo[1,5-a]pyrimidine-2-carboxamido)-2-methoxybenzoic acid] |
| 200 to 2000 | COc1ccc(-c2ccnc3cc(C(=O)N4CCN(c5ccccc5)CC4)nn23)cc1OC [Compound 152, (7-(3,4-dimethoxyphenyl)pyrazolo[1,5-a]pyrimidin-2-yl)(4-phenylpiperazin-1-yl)methanone] |
| ≥ 2000 | CCOc1ccc(NC(=O)c2cc3nccc(-c4ccc(OC)cc4F)n3n2)cc1 [Compound 296, N-(4-ethoxyphenyl)-7-(2-fluoro-4-methoxyphenyl)pyrazolo [1,5-a]pyrimidine-2-carboxamide] |
| < 200 | COc1ccc(-c2ccnc3cc(C(=O)Nc4ccc(N5CCN(C(C)C)CC5)cc4)nn23)cc1OC [Compound 266, 7-(3,4-dimethoxyphenyl)-N-(4-(4-isopropylpiperazin-1-yl)phenyl)pyrazolo[1,5-a]pyrimidine-2-carboxamide] |
| 200 to 2000 | COC(=O)c1ccc(NC(=O)Nc2cc3nccc(-c4ccc(OC)c(OC)c4)n3n2)cc1 [Compound 93, methyl 4-(3-(7-(3,4-dimethoxyphenyl)pyrazolo[1,5-a]pyrimidin-2-yl)ureido)benzoate] |
| ≥ 2000 | CCOc1ccc(NC(=O)c2cc3nccc(-c4ccccc4)n3n2)cc1 [Compound 300, N-(4-ethoxyphenyl)-7-phenylpyrazolo[1,5-a]pyrimidine-2-carboxamide] |
| < 200 | COc1ccc(-c2ccnc3cc(C(=O)Nc4ccc(C)cn4)nn23)cc1OC [Compound 122, 7-(3,4-dimethoxyphenyl)-N-(5-methylpyridin-2-yl)pyrazolo[1,5-a] pyrimdine-2-carboxamide] |
| 200 to 2000 | COc1ccc(-c2ccnc3cc(C(=O)Nc4cccc(C(N)=O)c4)nn23)cc1OC [Compound 54, N-(3-carbamoylphenyl)-7-(3,4-dimethoxyphenyl)pyrazolo [1,5-a]pyrimidine-2-carboxamide] |
